Measurements from patent US11154529B2, “Phosphaplatin liquid formulations” (Phosplatin Therapeutics Inc., priority 2016, dated 2021).

Columns and labels:
[1] = Decrease in potency by HPLC of aqueous 1 mg/mL (R,R)-pyrodach-2 solutions in a variety of buffers at ambient temperature; format: physicochemical
Excerpt: Chem. 47, 7942 (2008)). Thus, simple dissolution of (R,R)-pyrodach-2 affords an acidic solution. […] At higher pHs, where the acid groups of (R,R)-pyrodach-2 are ionized, the solubility of (R,R)-pyrodach-2 increases. In addition, deprotonation of the acid groups in (R,R)-pyrodach-2 dramatically reduces the rate of hydrolytic degradation. […] Thus, controlling the pH of an aqueous solution in the physiological pH range, much less the accurate and reproducible preparation of aqueous (R,R)-pyrodach-2 solutions in this pH range by pH adjustment of an aqueous solution of (R,R)-pyrodach-2 with hydroxide base, is extremely difficult. […] This presents a unique challenge as the pyrophosphate ligand in (R,R)-pyrodach-2 is kinetically labile in solution and can potentially undergo reaction with anions present in many buffers. […] [table]

[2] = Ready-to-use formulation stability at 25° C./60% RH, 5 mg/mL (R,R)-pyrodach-2 in 10 mM Sodium Phosphate Buffer, 5.2 mM Sodium Pyrophosphate at pH 7.5, 10 mL vials; format: physicochemical
Description: Stability data on the formulation with added pyrophosphate at 40° C./75% RH in Table 12 is even more dramatic. […] [table] [table] • Transfer 1419.6 mg±14.0 mg of dibasic sodium phosphate anhydrous to a 1-L volumetric flask. • Transfer 2298.5 mg±23.0 mg of tetrasodium pyrophosphate decahydrate into the same 1-L volumetric flask. • Fill flask to approximately 75% volume with sterile water for injection, swirl as needed to dissolve all solids. • Volumetrically transfer 8.0 mL of 1N NaOH to flask. • Dilute flask to volume with water and mix well. • Record the pH of final solution. This is the vehicle. • Determine the tare weight of a 500-mL compounding vessel with stir bar. • Transfer 2500.1 mg±25.0 mg of (R,R)-pyrodach-2 to the vessel. • Transfer 450.0 g±0.1 g of the vehicle to the vessel and stir to dissolve solids. • Determine the initial pH of the solution. • Slowly adjust the pH of the solution to 7.5±0.1 by adding additional N NaOH. • Determine the gross solution weight and dilute the solution weight to 500.0 g±0.1 g by adding additional vehicle into the compounding vessel. Density=1.00 g/mL. • Stir the final solution for an additional 5 minutes. • Determine the pH of final solution. • Pass the entire solution through a 0.22 μm PVDF Stericup filter into a sterile collection vessel. • Conduct the following in a laminar flow hood; fill 10-mL sterile tubing vials with 10 mL of solution, stoppered with a sterile Flurotec stopper, and crimp-capped with a flip-off seal. • Place vials in 40° C./75% RH and 25° C./60% RH stability chambers. HPLC method in Example 3 to monitor purity and impurities.

O=P1(O)OP(=O)(O)[O][Pt]2([NH][C@@H]3CCCC[C@H]3[NH]2)[O]1 (stereo partly drawn) [(R,R)-pyrodach-2, (R,R)-trans-1,2-cyclohexanediamine-(dihydrogenpyrophosphato)platinum(II)]
Decrease in Potency ([1]; Acetate 20 mM, pH 5.32, 7 days): 13.5%
Decrease in Potency ([1]; Citric acid 20 mM, pH 6.51, 4 days): 1.9%
Decrease in Potency ([1]; Citric acid 20 mM, pH 6.51, 11 days): 3.9%
Decrease in Potency ([1]; L-arginine 20 mM, pH 7.72, 4 days): 4.0%
Decrease in Potency ([1]; L-arginine 20 mM, pH 7.72, 11 days): 10%
Decrease in Potency ([1]; NH4HCO3 20 mM, pH 7.68, 14 days): 8.0%
Decrease in Potency ([1]; NH4HCO3 50 mM, pH 7.83, 14 days): 18.0%
Decrease in Potency ([1]; NH4HCO3 100 mM, pH 7.94, 14 days): 47.1%
Decrease in Potency ([1]; Triethanolamine 20 mM, pH 7.97, 4 days): 1.9%
Decrease in Potency ([1]; Triethanolamine 20 mM, pH 7.97, 11 days): 5.7%
Individual Related Substances RRT 0.28-0.29 ([2]; 1 Month): 0.10%
Individual Related Substances RRT 0.50-0.51 ([2]; 1 Month): 0.08%
Individual Related Substances RRT 0.58 ([2]; 1 Month): 0.39%
Individual Related Substances RRT 0.73-0.74 ([2]; 1 Month): 0.71%
Potency (Assay) ([2]; 1 Month): 102.2%
Total Related Substances ([2]; 1 Month): 1.3%
pH ([2]; 1 Month): 7.6
Individual Related Substances RRT 0.28-0.29 ([2]; 2 Months): 0.20%
Individual Related Substances RRT 0.50-0.51 ([2]; 2 Months): 0.15%
Individual Related Substances RRT 0.58 ([2]; 2 Months): 0.38%
Individual Related Substances RRT 0.73-0.74 ([2]; 2 Months): 0.92%
Potency (Assay) ([2]; 2 Months): 103.8%
Total Related Substances ([2]; 2 Months): 1.6%
pH ([2]; 2 Months): 7.6
Individual Related Substances RRT 0.28-0.29 ([2]; 3 Months): 0.17%
Individual Related Substances RRT 0.50-0.51 ([2]; 3 Months): 0.11%
Individual Related Substances RRT 0.58 ([2]; 3 Months): 0.43%
Individual Related Substances RRT 0.73-0.74 ([2]; 3 Months): 0.88%
Potency (Assay) ([2]; 3 Months): 101.4%
Total Related Substances ([2]; 3 Months): 1.6%
pH ([2]; 3 Months): 7.6
Individual Related Substances RRT 0.28-0.29 ([2]; 6 Months): 0.17%
Individual Related Substances RRT 0.50-0.51 ([2]; 6 Months): 0.12%
Individual Related Substances RRT 0.58 ([2]; 6 Months): 0.44%
Individual Related Substances RRT 0.73-0.74 ([2]; 6 Months): 0.81%
Potency (Assay) ([2]; 6 Months): 102.8%
Total Related Substances ([2]; 6 Months): 1.5%
pH ([2]; 6 Months): 7.6
Individual Related Substances RRT 0.28-0.29 ([2]; 9 Months): 0.18%
Individual Related Substances RRT 0.50-0.51 ([2]; 9 Months): 0.21%
Individual Related Substances RRT 0.58 ([2]; 9 Months): 0.42%
Individual Related Substances RRT 0.73-0.74 ([2]; 9 Months): 0.27%
Potency (Assay) ([2]; 9 Months): 101.7%
Total Related Substances ([2]; 9 Months): 1.20%
pH ([2]; 9 Months): 7.6
Individual Related Substances PT-112 Dimer ([2]; Initial): 0.16%
Individual Related Substances RRT 0.28-0.29 ([2]; Initial): 0.14%
Individual Related Substances RRT 0.50-0.51 ([2]; Initial): 0.08%
Individual Related Substances RRT 0.58 ([2]; Initial): 0.34%
Individual Related Substances RRT 0.73-0.74 ([2]; Initial): 0.83%
Individual Related Substances RRT 0.92 ([2]; Initial): 0.05%
Individual Related Substances RRT 1.57 ([2]; Initial): 0.12%
Potency (Assay) ([2]; Initial): 102.0%
Total Related Substances ([2]; Initial): 1.7%
pH ([2]; Initial): 7.5
